Publication PMC7551256, “Biochemical Characterization of a Novel Endo-1,3-β-Glucanase from the Scallop Chlamys farreri” (Marine Drugs, 2020)

Legend:
Lcf [1] = target: T1, Lcf (Azumapecten farreri, UniProt A0A140H631); experiment: ESI-MS of transglycosylation products; format: biochemical; conditions: glycosyl acceptor 2 mg/mL; donor laminarihexaose 2 mg/mL; 25 mM sodium acetate pH 5.6, 37 °C, 5 min
T1 construct: full length without signal peptide; secreted from Brevibacillus (pNCMO2, BamHI/XhoI); about 37 kDa; primers encode AGFRDDF at N-terminus and DYIEMIPH-stop at C-terminus
T1 sequence (A0A140H631 16-340): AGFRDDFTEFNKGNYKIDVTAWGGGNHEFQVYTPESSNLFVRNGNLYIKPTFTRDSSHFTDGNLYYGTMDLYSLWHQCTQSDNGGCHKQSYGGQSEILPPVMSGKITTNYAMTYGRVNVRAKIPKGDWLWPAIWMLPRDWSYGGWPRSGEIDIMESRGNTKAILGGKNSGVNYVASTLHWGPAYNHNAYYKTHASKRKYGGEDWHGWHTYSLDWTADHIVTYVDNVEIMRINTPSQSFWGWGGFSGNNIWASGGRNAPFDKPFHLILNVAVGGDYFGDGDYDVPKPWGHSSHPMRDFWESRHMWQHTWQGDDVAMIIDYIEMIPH

Lcf [2] = target: T1, Lcf; experiment: TLC of hydrolysis products; ESI-MS; format: biochemical; conditions: 0.1% (w/w) substrate, 50 mM sodium acetate pH 5.6, 37 °C; hydrolysed, also glycosyl donor

Row | Structure (SMILES) | ESI-MS of transglycosylation products (Lcf [1]) | TLC of hydrolysis products; ESI-MS (Lcf [2])
1 | OC[C@@H](O)[C@@H](O)[C@H](O)[C@@H](O)CO [D-sorbitol] | three transglycosylation products were observed in the presence of D-sorbitol | –
2 | OC[C@H]1O[C@@H](O[C@@H]2[C@@H](O)[C@H](O[C@@H]3[C@@H](O)[C@H](O[C@@H]4[C@@H](O)[C@H](O[C@@H]5[C@@H](O)[C@H](O[C@H]6[C@H](O)[C@@H](CO)OC(O)[C@@H]6O)O[C@H](CO)[C@H]5O)O[C@H](CO)[C@H]4O)O[C@H](CO)[C@H]3O)O[C@H](CO)[C@H]2O)[C@H](O)[C@@H](O)[C@@H]1O (some centres unmarked) [laminarihexaose] | – | Lcf showed a more efficient cleavage rate toward laminarinexaose
